Experiments:
22Rv1 Cell = test: 22RV1 cell growth inhibition, CellTiter-Glo, 72 h; type: cell-based; settings: Homo sapiens, 22Rv1, 72 h, 22RV1 cells, 72 h culture
Description: (§1) 22RV1 or vCap cells were cultured in RPMI-1640 medium (10% fetal bovine serum and 100 units (per mL) of penicillin/streptomycin dual antibody were added to RPMI-1640) in a 37° C., 5% CO2 cell incubator. Cells at the logarithmic growth phase were inoculated onto a 96-well cell culture plate at 5×10^3 cells/100 μL/well and cultured overnight. Solutions of different concentrations of an active compound in DMSO were added, with the final concentration being 0.5% DMSO. The positive control was 1% TweeN2O, and the negative control was 0.5% DMSO. After 72 h of culture, an equal volume of CellTiter-Glo was added to each well, and the mixtures were mixed homogeneously by shaking for 2 min. The plate was let stand at room temperature for 10 min, and fluorescence signal values were read using a microplate reader. Data were analyzed using Prism 7.0 and graphs were generated. The values are shown as mean f SEM (N=2). […] The X-axis represents compound concentration (μM), and the Y-axis represents % inhibition.

vCap Cell = test: vCap cell growth inhibition, CellTiter-Glo, 72 h; type: cell-based; settings: Homo sapiens, VCaP, 72 h, vCap cells, 72 h culture
Description: as §1

Row | SMILES | IC50 (22Rv1 Cell) | IC50 (vCap Cell)
1 | CON1CCC(c2cc3c(c(N4CCCc5cc(-c6cnn(C)c6)c(C(F)F)cc54)c2)CN(C(=O)OC(C)(C)C)CC3)CC1 [Compound M001274, tert-butyl 8-[7-(difluoromethyl)-6-(1-methylpyrazol-4-yl)-3,4-dihydro-2H-quinolin-1-yl]-6-(1-methoxypiperidin-4-yl)-3,4-dihydro-1H-isoquinoline-2-carboxylate] | > 1 µM | > 1 µM
2 | CC(=O)N1Cc2cc(C3CCC(=O)N(CC(C)(C)O)C3)cc(N3CCCc4cc(-c5cnn(C)c5)c(C(F)F)cc43)c2C1 (centres unmarked) [Compound M001231] | < 1 µM | < 1 µM
3 | CNC(=O)N1CCc2cc(C3CCN(CC#N)CC3)cc(N3CCCc4cc(-c5cnn(C)c5)c(C(F)F)cc43)c2C1 [Compound M001070] | > 1 µM | > 1 µM
4 | CNC(=O)N1CCCc2cccc(N3CCCc4cc(-c5cnn(C)c5)c(C(F)F)cc43)c2C1 [Compound M001211] | > 1 µM | > 1 µM
5 | CC(=O)N1CCCc2cccc(N3CCCc4cc(-c5cnn(C)c5)c(C(F)F)cc43)c2C1 [Compound M001212] | > 1 µM | > 1 µM
6 | CNC(=O)N1CCc2cc(C3CCC(OC)CC3)cc(N3CCCc4cc(-c5cnn(C)c5)c(C(F)F)cc43)c2C1 (centres unmarked) [Compound M001198] | > 1 µM | > 1 µM
7 | CNC(=O)N1Cc2cc(C3CC4CCC(C3)N4C)cc(N3CCCc4cc(-c5cnn(C)c5)c(C(F)F)cc43)c2C1 (centres unmarked) [Compound M001092] | > 1 µM | > 1 µM
8 | CCN1CCC(c2cc3c(c(N4CCCc5cc(-c6cnn(C)c6)c(C(F)F)cc54)c2)CN(C(C)=O)C3)CC1=O (centres unmarked) [Compound M001189] | < 1 µM | < 1 µM
9 | CNC(=O)N1Cc2cc(-c3ccccc3)cc(N3CCCc4cc(-c5cnn(C)c5)c(C(F)F)cc43)c2C1 [Compound M001120] | > 1 µM | > 1 µM
10 | CC(=O)N1Cc2cc(C3CCC(=O)CC3)cc(N3CCCc4cc(-c5cnn(C)c5)c(C(F)F)cc43)c2C1 [Compound M001102] | > 1 µM | < 1 µM
11 | CNC(=O)N1Cc2cc(C3CC4CCC(C3)N4C(C)=O)cc(N3CCCc4cc(-c5cnn(C)c5)c(C(F)F)cc43)c2C1 (centres unmarked) [Compound M001095] | > 1 µM | > 1 µM
12 | CNC(=O)N1CCc2cc(CN3CCCC(C(=O)O)C3)cc(N3CCCc4cc(-c5cnn(C)c5)c(C(F)F)cc43)c2C1 (centres unmarked) [Compound M001015] | > 1 µM | > 1 µM
13 | CN1CCN(c2cc3c(c(N4CCCc5cc(-c6cnn(C)c6)c(C(F)F)cc54)c2)CN(C)C(=O)C3)CC1 [Compound M001024] | > 1 µM | > 1 µM
14 | CNC(=O)N1CCc2cc(C3CCNC(=O)C3)cc(N3CCCc4cc(-c5cnn(C)c5)c(C(F)F)cc43)c2C1 (centres unmarked) [Compound M001123] | > 1 µM | < 1 µM
15 | CC(=O)N1Cc2cc(C3CCN(C(=O)c4ccccc4)CC3)cc(N3CCCc4cc(-c5cnn(C)c5)c(C(F)F)cc43)c2C1 [Compound M001081] | < 1 µM | < 1 µM
16 | COC1CCC(c2cc3c(c(N4CCCc5cc(-c6cnn(C)c6)c(C(F)F)cc54)c2)CN(C(C)=O)CC3)CC1 (centres unmarked) [Compound M001196] | > 1 µM | > 1 µM
17 | CNC(=O)N1Cc2cc([C@H]3CC[C@@H](O)CC3)cc(N3CCCc4cc(-c5cnn(C)c5)c(C(F)F)cc43)c2C1 [Compound M001192] | > 1 µM | > 1 µM
18 | CNC(=O)N1Cc2cc(C3CCC(F)(F)CC3)cc(N3CCCc4cc(-c5cnn(C)c5)c(C(F)F)cc43)c2C1 [Compound M001094] | > 1 µM | > 1 µM
19 | CC(=O)N1Cc2cc(C3CCC(O)CC3)cc(N3CCCc4cc(-c5cnn(C)c5)c(C(F)F)cc43)c2C1 (centres unmarked) [Compound M001064] | > 1 µM | < 1 µM
20 | CC(=O)N1Cc2cc(C3CCN(C(=O)C4CCN(C)C4)CC3)cc(N3CCCc4cc(-c5cnn(C)c5)c(C(F)F)cc43)c2C1 (centres unmarked) [Compound M001087] | > 1 µM | > 1 µM
21 | CNC(=O)N1CCc2cc(C3CCNCC3)cc(N3CCCc4cc(-c5cnn(C)c5)c(C(F)F)cc43)c2C1 [Compound M001017] | > 1 µM | > 1 µM
22 | CNC(=O)N1CCc2cc(C3CCC(=O)CC3)cc(N3CCCc4cc(-c5cnn(C)c5)c(C(F)F)cc43)c2C1 [Compound M001103] | > 1 µM | > 1 µM
23 | CC(=O)N1Cc2cc(C3CCC(S(C)(=N)=O)CC3)cc(N3CCCc4cc(-c5cnn(C)c5)c(C(F)F)cc43)c2C1 (centres unmarked) [Compound M001297, (4-(2-acetyl-7-(7-(difluoromethyl)-6-(1-methyl-1H-pyrazol-4-yl)-3,4-dihydroquinolin-1(2H)-yl)isoindol-5-yl)cyclohexyl)(imino)(methyl)-16-sulfanone] | < 1 µM | < 1 µM

Row | SMILES | IC50 (22Rv1 Cell) | IC50 (vCap Cell)
24 | CNC(=O)N1Cc2cc(C3CC4CCC(C3)N4C(=O)NC)cc(N3CCCc4cc(-c5cnn(C)c5)c(C(F)F)cc43)c2C1 (centres unmarked) [Compound M001116] | > 1 µM | > 1 µM
25 | CC(=O)N1Cc2cc(N3CCSCC3)cc(N3CCCc4cc(-c5cnn(C)c5)c(C(F)F)cc43)c2C1 [Compound M001004] | > 1 µM | > 1 µM
26 | CNC(=O)N1CCc2cc(C3CC4CCC(C3)N4C)cc(N3CCCc4cc(-c5cnn(C)c5)c(C(F)F)cc43)c2C1 (centres unmarked) [Compound M001035] | > 1 µM | > 1 µM
27 | CC(=O)N1Cc2cc(C3CCN(C4COC4)CC3)cc(N3CCCc4cc(-c5cnn(C)c5)c(C(F)F)cc43)c2C1 [Compound M001056] | > 1 µM | > 1 µM
28 | CNC(=O)N1CCc2cc(-c3ccc(=O)n(C)c3)cc(Nc3cc(C(F)F)c(-c4cnn(C)c4)cc3F)c2C1 [Compound M001239, 8-((5-(difluoromethyl)-2-fluoro-4-(1-methyl-1H-pyrazol-4-yl)phenyl)amino)-N-methyl-6-(1-methyl-6-oxo-1,6-dihydropyridin-3-yl)-3,4-dihydroisoquinoline-2(1H)-carboxamide] | < 1 µM | < 1 µM
29 | CC(=O)N1Cc2cc(C3CCN(C(=O)C4CNC4)CC3)cc(N3CCCc4cc(-c5cnn(C)c5)c(C(F)F)cc43)c2C1 [Compound M001079] | > 1 µM | > 1 µM
30 | CC(=O)N1Cc2cc(C3CCN(C4CCC(=O)NC4=O)C(=O)C3)cc(N3CCCc4cc(-c5cnn(C)c5)c(C(F)F)cc43)c2C1 (centres unmarked) [Compound M001288] | > 1 µM | > 1 µM
31 | CON[C@H]1CC[C@H](c2cc3c(c(N4CCCc5cc(-c6cnn(C)c6)c(C(F)F)cc54)c2)CN(C(C)=O)C3)CC1 [Compound M001341] | > 1 µM | > 1 µM
32 | CC(=O)N1Cc2cc(C3CC4CCC(C3)N4C)cc(N3CCCc4cc(-c5cnn(C)c5)c(C(F)F)cc43)c2C1 (centres unmarked) [Compound M001032] | > 1 µM | > 1 µM
33 | CNC(=O)N1Cc2cc(C3CCN(C(=O)c4ccccc4)CC3)cc(N3CCCc4cc(-c5cnn(C)c5)c(C(F)F)cc43)c2C1 [Compound M001163] | > 1 µM | > 1 µM
34 | CNC(=O)N1CCc2cc(C3CCN(C(=O)C4CNC4)CC3)cc(N3CCCc4cc(-c5cnn(C)c5)c(C(F)F)cc43)c2C1 [Compound M001083] | > 1 µM | > 1 µM
35 | CC(=O)N1Cc2cc(C3CCNC3)cc(N3CCCc4cc(-c5cnn(C)c5)c(C(F)F)cc43)c2C1 (centres unmarked) [Compound M001046] | > 1 µM | > 1 µM
36 | CNC(=O)N1Cc2cc(-c3ccn(C)c(=O)c3)cc(N3CCCc4cc(-c5cnn(C)c5)c(C(F)F)cc43)c2C1 [Compound M001122] | > 1 µM | > 1 µM
37 | CNC(=O)N1CCc2cc([C@H]3CCC(=O)N(C)C3)cc(N3CCCc4cc(-c5cnn(C)c5)c(C(F)F)cc43)c2C1 [Compound M001234] | < 1 µM | < 1 µM
38 | CC(=O)N1CCc2cc([C@H]3CC[C@H](O)CC3)cc(N3CCCc4cc(-c5cnn(C)c5)c(C(F)F)cc43)c2C1 [Compound M001179] | > 1 µM | > 1 µM
39 | CC(=O)N1Cc2cc(C3CCN(C(=O)C(C)O)CC3)cc(N3CCCc4cc(-c5cnn(C)c5)c(C(F)F)cc43)c2C1 (centres unmarked) [Compound M001073] | > 1 µM | > 1 µM
40 | CC(=O)N1Cc2cc(C3CCC([S@@](C)(=N)=O)CC3)cc(N3CCCc4cc(-c5cnn(C)c5)c(C(F)F)cc43)c2C1 (some centres unmarked) [Compound M001328] | > 1 µM | > 1 µM
41 | CNC(=O)N1CCc2cc(C3CCC(=O)N(C)C3)cc(N3CCCc4cc(-c5cnn(C)c5)c(C(F)F)cc43)c2C1 (centres unmarked) [Compound M001170] | < 1 µM | < 1 µM
42 | CC(=O)N1Cc2cc(C3CCN(C)C3)cc(N3CCCc4cc(-c5cnn(C)c5)c(C(F)F)cc43)c2C1 (centres unmarked) [Compound M001047] | > 1 µM | > 1 µM
43 | CNC(=O)N1CCc2cc(CN3CCC(C(=O)O)CC3)cc(N3CCCc4cc(-c5cnn(C)c5)c(C(F)F)cc43)c2C1 [Compound M001016] | > 1 µM | > 1 µM
44 | CC(=O)N1CCc2cc(-c3ccn(C)c(=O)c3)cc(N3CCCc4cc(-c5cnn(C)c5)c(C(F)F)cc43)c2C1 [Compound M001144] | > 1 µM | > 1 µM
45 | CNC(=O)N1CCc2cc(N3CCN(C)CC3)cc(N3CCCc4cc(-c5cnn(C)c5)c(C(F)F)cc43)c2C1 [Compound M001045] | > 1 µM | > 1 µM
46 | CNC(=O)N1CCc2cc(C3CCOCC3)cc(N3CCCc4cc(-c5cnn(C)c5)c(C(F)F)cc43)c2C1 [Compound M001184] | > 1 µM | < 1 µM

From patent US20240109868A1, “EP300/CBP MODULATOR, PREPARATION METHOD THEREFOR AND USE THEREOF” (Miracure Biotechnology Limited, priority 2022, published 2024)
